Test results as given in patent US20240343704A1, “HALO-SUBSTITUTED AMINO PYRIDINE COMPOUNDS AS INHIBITORS OF THE HAEMATOPOIETIC PROGENITOR KINASE 1 (HPK1)” (priority 2021, published 2024).
Structures can show the parent of a compound that is named as a salt.

Tests used:
[1] = biological target: T1, Recombinant (1-346) HPK1 (h) (Homo sapiens, UniProt Q92918); assay: HPK1 Human STE Kinase Enzymatic Radiometric Assay; type: biochemical; details: read-out: HPK1 IC50 nM Range*
T1 construct: Recombinant (1-346) HPK1 (h) is incubated with 8 mM MOPS pH 7.0
T1 sequence (Q92918 1-346): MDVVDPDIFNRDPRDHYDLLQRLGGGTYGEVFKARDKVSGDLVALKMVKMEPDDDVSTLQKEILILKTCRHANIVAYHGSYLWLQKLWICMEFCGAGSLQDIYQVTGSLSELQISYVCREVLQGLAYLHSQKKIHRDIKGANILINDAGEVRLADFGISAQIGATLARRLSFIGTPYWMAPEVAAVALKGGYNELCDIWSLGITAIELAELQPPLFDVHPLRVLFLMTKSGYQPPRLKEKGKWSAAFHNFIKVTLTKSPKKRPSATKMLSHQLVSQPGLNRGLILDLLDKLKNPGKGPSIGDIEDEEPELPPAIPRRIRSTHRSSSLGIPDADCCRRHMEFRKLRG
Method: A stock solution of 10 mM of test compound is prepared in DMSO. The compound plate was prepared by 3-fold and 9-point serial dilutions. […] The reaction is initiated by The addition of the Mg/ATP mix. After incubation for 40 minutes at RT, the reaction is stopped by the addition of phosphoric acid to a concentration of 0.5%.

Lck (h) = Lck (h) (Homo sapiens, UniProt P06239); assay: Lck Human  Kinase Enzymatic Radiometric Assay; type: biochemical; details: read-out: Lck IC50 nM Range*
Sequence of Lck (h) (P06239 whole entry): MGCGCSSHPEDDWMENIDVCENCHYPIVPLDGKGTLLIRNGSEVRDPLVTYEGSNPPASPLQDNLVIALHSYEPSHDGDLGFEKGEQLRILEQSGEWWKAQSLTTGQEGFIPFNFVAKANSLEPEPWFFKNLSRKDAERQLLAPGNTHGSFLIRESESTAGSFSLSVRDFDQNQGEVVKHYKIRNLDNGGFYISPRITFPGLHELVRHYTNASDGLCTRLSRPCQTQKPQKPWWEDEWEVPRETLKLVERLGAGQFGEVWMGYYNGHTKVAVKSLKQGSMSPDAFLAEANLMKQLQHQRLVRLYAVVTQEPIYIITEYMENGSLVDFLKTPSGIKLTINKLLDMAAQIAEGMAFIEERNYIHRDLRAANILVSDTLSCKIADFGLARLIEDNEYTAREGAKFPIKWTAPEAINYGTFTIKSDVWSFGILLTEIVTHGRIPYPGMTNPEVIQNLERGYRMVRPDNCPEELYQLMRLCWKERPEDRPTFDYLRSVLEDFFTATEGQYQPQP
Method in brief: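 Substrate 33P-incorporation measured by scintillation counting after spotting on P30 filtermat and phosphoric acid washes. Human Lck reacted 40 min at RT in 50 mM Tris pH 7.5 with 10 mM MgAcetate, [gamma-33P]-ATP, 250 uM Cdc2 peptide, 0.1 mM EGTA and 0.1 mM Na3VO4.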

IC50 [1] [nM] | IC50 (Lck (h)) [nM] | SMILES
0.1 to 10 | > 1000 | Nc1nc(F)c(-c2ccc3c(c2)C(=O)CC2(CCN(CC(F)(F)F)CC2)O3)cc1-c1ccc2c(c1)CCNC2=O [I-196, 6-(6-amino-2-fluoro-5-(1-oxo-1,2,3,4-tetrahydroisoquinolin-6-yl)pyridin-3-yl)-1′-(2,2,2-trifluoroethyl)spiro[chromane-2,4′-piperidin]-4-one]
0.1 to 10 | 101 to 1000 | CC(C)N1CCC(c2ccc(-c3cc(-c4cc(F)c5c(c4)CCNC5=O)c(N)nc3F)cc2)CC1 [I-302, 6-(2-amino-6-fluoro-5-(4-(1-isopropylpiperidin-4-yl)phenyl)pyridin-3-yl)-8-fluoro-3,4-dihydroisoquinolin-1(2H)-one]
0.1 to 10 | 101 to 1000 | CC(C)N1CCN(c2ccc(-c3cc(-c4cc(F)c5c(c4)CCNC5=O)c(N)nc3F)cc2)CC1 [I-336, 6-(2-amino-6-fluoro-5-(4-(4-isopropylpiperazin-1-yl)phenyl)pyridin-3-yl)-8-fluoro-3,4-dihydroisoquinolin-1(2H)-one]
0.1 to 10 | 101 to 1000 | CN(CC1CC1)[C@@H]1CCN(c2ccc(-c3cc(-c4ccc5c(c4)CCNC5=O)c(N)nc3F)cc2)C1 [I-161, (R)-6-(2-amino-5-(4-(3-((cyclopropylmethyl)(methyl)amino)pyrrolidin-1-yl)phenyl)-6-fluoropyridin-3-yl)-3,4-dihydroisoquinolin-1(2H)-one]
11 to 100 | > 1000 | C[C@@H]1CCCN1c1ccc(-c2cc(-c3ccc4c(c3)CCNC4=O)c(N)nc2F)cc1 [I-46, (R)-6-(2-amino-6-fluoro-5-(4-(2-methylpyrrolidin-1-yl)phenyl)pyridin-3-yl)-3,4-dihydroisoquinolin-1(2H)-one]
0.1 to 10 | > 1000 | CN1CCN(c2ccc(-c3cc(-c4ccc5c(c4)CCNC5=O)c(N)nc3F)cc2N)CC1 [I-332, 6-(2-amino-5-(3-amino-4-(4-methylpiperazin-1-yl)phenyl)-6-fluoropyridin-3-yl)-3,4-dihydroisoquinolin-1(2H)-one]
11 to 100 | > 1000 | Nc1nc(F)c(-c2ccc(O[C@@H]3CCCNC3)cc2)cc1-c1cc2c(cc1F)C(=O)NCC2 [I-180, (R)-6-(2-amino-6-fluoro-5-(4-(piperidin-3-yloxy)phenyl)pyridin-3-yl)-7-fluoro-3,4-dihydroisoquinolin-1(2H)-one]
0.1 to 10 | > 1000 | Cc1cc(-c2cc(-c3ccc4c(c3)CCNC4=O)c(N)nc2F)cc2c1CCN(C)C2 [I-434, 6-(2-amino-5-(2,5-dimethyl-1,2,3,4-tetrahydroisoquinolin-7-yl)-6-fluoropyridin-3-yl)-3,4-dihydroisoquinolin-1(2H)-one]
0.1 to 10 | > 1000 | COCCN1CCC(Oc2ccc(-c3cc(-c4ccc5c(c4)CCNC5=O)c(N)nc3F)cc2F)CC1 [I-269, 6-(2-amino-6-fluoro-5-(3-fluoro-4-((1-(2-methoxyethyl)piperidin-4-yl)oxy)phenyl)pyridin-3-yl)-3,4-dihydroisoquinolin-1(2H)-one]
0.1 to 10 | > 1000 | Cc1nc2cc(-c3cc(-c4ccc(N5CCN(C(C)C)CC5)cc4)c(F)nc3N)cc(F)c2c(=O)[nH]1 [I-414, 7-(2-amino-6-fluoro-5-(4-(4-isopropylpiperazin-1-yl)phenyl)pyridin-3-yl)-5-fluoro-2-methylquinazolin-4(3H)-one]
11 to 100 | > 1000 | CNCC1Cc2cc(-c3cc(-c4ccc5c(c4)CCNC5=O)c(N)nc3F)ccc2C(=O)N1 (stereo not drawn) [I-276, 6-(6-amino-2-fluoro-5-(1-oxo-1,2,3,4-tetrahydroisoquinolin-6-yl)pyridin-3-yl)-3-((methylamino)methyl)-3,4-dihydroisoquinolin-1(2H)-one]
11 to 100 | > 1000 | Nc1nc(F)c(-c2ccc(OC3CNC3)cc2)cc1-c1ccc2c(c1)CCNC2=O [I-146, 6-(2-amino-5-(4-(azetidin-3-yloxy)phenyl)-6-fluoropyridin-3-yl)-3,4-dihydroisoquinolin-1(2H)-one]
11 to 100 | > 1000 | N#Cc1cc(-c2cc(-c3cc4c(cc3F)C(=O)NCC4)c(N)nc2F)ccc1OC1CCNCC1 [I-289, 5-(6-amino-2-fluoro-5-(7-fluoro-1-oxo-1,2,3,4-tetrahydroisoquinolin-6-yl)pyridin-3-yl)-2-(piperidin-4-yloxy)benzonitrile]
0.1 to 10 | > 1000 | Nc1nc(F)c(-c2ccc(C3(F)CNC3)cc2)cc1-c1ccc2c(c1)CCNC2=O [I-340, 6-(2-amino-6-fluoro-5-(4-(3-fluoroazetidin-3-yl)phenyl)pyridin-3-yl)-3,4-dihydroisoquinolin-1(2H)-one 2,2,2-trifluoroacetate]
0.1 to 10 | > 1000 | CN(C)Cc1cc(-c2cc(-c3ccc4c(c3)CCNC4=O)c(N)nc2F)ccc1N1CCOCC1 [I-432, 6-(2-amino-5-(3-((dimethylamino)methyl)-4-morpholinophenyl)-6-fluoropyridin-3-yl)-3,4-dihydroisoquinolin-1(2H)-one]
11 to 100 | > 1000 | Nc1nc(F)c(-c2ccc(OCC3CC3)cc2)cc1-c1cc2c(cc1F)C(=O)NCC2 [I-316, 6-(2-amino-5-(4-(cyclopropylmethoxy)phenyl)-6-fluoropyridin-3-yl)-7-fluoro-3,4-dihydroisoquinolin-1(2H)-one]
0.1 to 10 | 11 to 100 | Nc1nc(F)c(-c2ccc(C3CCOCC3)c([C@@H]3CCCN3)c2)cc1-c1cc2c(cc1F)C(=O)NCC2 [I-368, (S)-6-(2-amino-6-fluoro-5-(3-(pyrrolidin-2-yl)-4-(tetrahydro-2H-pyran-4-yl)phenyl)pyridin-3-yl)-7-fluoro-3,4-dihydroisoquinolin-1(2H)-one]
0.1 to 10 | > 1000 | Nc1nc(F)c(-c2ccc(OC3CCNCC3)c3c2OCO3)cc1-c1ccc2c(c1)CCNC2=O [I-145, 6-(2-amino-6-fluoro-5-(7-(piperidin-4-yloxy)benzo[d][1,3]dioxol-4-yl)pyridin-3-yl)-3,4-dihydroisoquinolin-1(2H)-one]
11 to 100 | > 1000 | COCCN1CCC(Oc2ccc(-c3cc(-c4cc5c(cc4F)C(=O)NCC5)c(N)nc3F)cc2C#N)CC1 [I-303, 5-(6-amino-2-fluoro-5-(7-fluoro-1-oxo-1,2,3,4-tetrahydroisoquinolin-6-yl)pyridin-3-yl)-2-((1-(2-methoxyethyl)piperidin-4-yl)oxy)benzonitrile]
11 to 100 | > 1000 | CC(C)N1CCN(c2ccc(-c3cc(-c4ccc5c(c4)CCNC5=O)c(N)nc3Cl)cc2)CC1 [I-169, 6-(2-amino-6-chloro-5-(4-(4-isopropylpiperazin-1-yl)phenyl)pyridin-3-yl)-3,4-dihydroisoquinolin-1(2H)-one]
101 to 1000 | > 1000 | CC(C)(C)OC(=O)N1CCC2(CCc3cc(-c4cc(-c5ccc6c(c5)CCNC6=O)c(N)nc4F)ccc3O2)CC1 [I-175, tert-butyl 6-(6-amino-2-fluoro-5-(1-oxo-1,2,3,4-tetrahydroisoquinolin-6-yl)pyridin-3-yl)spiro[chromane-24′-piperidine]-1′-carboxylate]
0.1 to 10 | > 1000 | Nc1nc(F)c(-c2ccc(N3CCOCC3)cc2)cc1-c1cc(F)c2c(c1)CCNC2=O [I-309, 6-(2-amino-6-fluoro-5-(4-morpholinophenyl)pyridin-3-yl)-8-fluoro-3,4-dihydroisoquinolin-1(2H)-one]
0.1 to 10 | > 1000 | Nc1nc(F)c(-c2ccc(C3CCOCC3)c([C@@H]3CCCN3)c2)cc1-c1ccc2c(=O)[nH]ccc2c1 [I-370, (S)-6-(2-amino-6-fluoro-5-(3-(pyrrolidin-2-yl)-4-(tetrahydro-2H-pyran-4-yl)phenyl)pyridin-3-y)isoquinolin-1(2H)-one]
11 to 100 | > 1000 | Nc1nc(F)c(-c2cccc(CN3CCNCC3)c2)cc1-c1ccc2c(c1)CCNC2=O [I-265, 6-(2-amino-6-fluoro-5-(3-(piperazin-1-ylmethyl)phenyl)pyridin-3-yl)-3,4-dihydroisoquinolin-1(2H)-one formate]
0.1 to 10 | > 1000 | CC(C)N1CCN(c2ccc(-c3cc(-c4cc5c(cc4F)C(=O)NCC5)c(N)nc3F)nc2)CC1 [I-170, 6-(6′-amino-2′-fluoro-5-(4-isopropylpiperazin-1-yl)-[2,3′-bipyridin]-5′-yl)-7-fluoro-3,4-dihydroisoquinolin-1(2H)-one]
0.1 to 10 | > 1000 | CC(C)N1CC(Oc2ccc(-c3cc(-c4ccc5c(c4)CCNC5=O)c(N)nc3F)cc2)C1 [I-288, 6-(2-amino-6-fluoro-5-(4-((1-isopropylazetidin-3-yl)oxy)phenyl)pyridin-3-yl)-3,4-dihydroisoquinolin-1(2H)-one]

SMILES | IC50 [1] [nM] | IC50 (Lck (h)) [nM]
COC1(c2ccc(-c3cc(-c4ccc5c(c4)CCNC5=O)c(N)nc3F)cc2)CCN(C(C)C)CC1 [I-294, 6-(2-amino-6-fluoro-5-(4-(1-isopropyl-4-methoxypiperidin-4-yl)phenyl)pyridin-3-yl)-3,4-dihydroisoquinolin-1(2H)-one] | 0.1 to 10 | > 1000
